Assay results: US4560758A, “Process for preparing pyrrolo[1,2-a]imidazoles and imidazo[1,2-a]pyridines” (Pennwalt Corporation, priority 1984, dated 1985)
Where a name gives a salt, the structure may show the parent alone.

What was measured:
murine marcophage cells = experiment: Chemotaxis assay (migration of macrophages toward complement-derived chemoattractant); format: cell-based
Protocol: In this assay, done according to the methods of R. Synderman et al., Infection & Immunity, 11, p. 488-492 (1975) and M. S. Meltzer et al., J. Natl. Cancer Inst., 54, p. 795-799 (1975), the ability of a drug substance to influence the movement of cells responding to a stimulus induced by some foreign substance or injury is determined. This is vitro assay utilizes a chemoattractant, derived from a component of the immunological system known as complement, to induce murine marcophage cells to migrate toward it. The effect of a drug substance on such movements can be measured by counting the cells. […] For example, the compound of Example 15 stimulates migration by 35.6% at 10^-8 molar concentration and is thus immunoenhancing.

[1] = test system: antibody secreting cells in the spleen; experiment: Kennedy Plaque Assay (humoral immune system depressed by 6-mercaptopurine; number of plaques); format: in vivo; settings: for change in vivo at 6.25 mg/kg: ip, 60 mg/Kg of 6 MP plus 6.25 mg/Kg (i.p.) of compound, read-out: Percent Restoration (+) or Suppression (-)
Protocol: In this assay, in which the in vitro model used was the Kennedy modification of the Jerne (or plaque) technique (J. C. Kennedy et al, Immunol., 20, p. 253 (1971)), the animal's humoral immune system is depressed artificially by the known immunosuppressant drug, 6-mercaptopurine (6-MP), and then the ability of a drug to either suppress it further or restore it towards normal is evaluated. The change in the number of plaques, which is a direct correlate of the change in the number of antibody secreting cells in the spleen, is used to measure this effect. For example, the compound of Example 11 results in greater than 100% restoration of the number of plaques and thus causes an immunoenhancement of the humoral system. In contrast, the compound of Example 28 results in about 24% further suppression of the number of plaques and thus behaves as an immunosuppressant.
of 6 MP plus 6.25 mg/Kg (i.p.)
^1 without 6MP treatment
^2 percent change from control (i.e., without 6MP)

mouse hepatitis virus = experiment: Antiviral assay - hepatitis in mice; format: in vivo; settings: once daily for 3 days; for Mean Liver Score: day 4, 0 (normal) to 4 (extreme discoloration); for Percent Survival: day 21
Protocol: Female mice weighing approximately 21-24 grams were inoculated with 0.1 ml of a mouse liver suspension containing mouse hepatitis virus, which liver suspension is at a dilution of 10^-5.5. Starting twenty-four hours post-virus inoculation, the animals were intraperitoneally ("i.p.") or orally administered the test compound(s) once daily for 3 days. On day 4, one third to one half of each group of mice were sacrificed and their liver removed for examination. Each liver was scored and assigned a number from 0 (normal liver) to 4 (extreme discoloration). The mean liver score per group was computed. The number of animals surviving until termination of the study (day 21) was also recorded. Anti-hepatitis activity is evidenced by increased survivor numbers and improved liver scores.

Q: Which results are given for `CSC1CCN2CC(c3ccccc3)N=C12` (stereo not drawn) [Example 1, 2,5,6,7-Tetrahydro-2-phenyl-7-methylthio-3H-pyrrolo[1,2-a]imidazole hydrochloride]?
A: Percent Inhibition (-) or Enhancement (+) of migration (murine marcophage cells; 10^-5 m): -25.4%; Percent Inhibition (-) or Enhancement (+) of migration (murine marcophage cells; 10^-7 m): -8.8%; Percent Inhibition (-) or Enhancement (+) of migration (murine marcophage cells; 10^-8 m): -17.5%; Percent Inhibition (-) or Enhancement (+) of migration (murine marcophage cells; 10^-9 m): -29.7%; Percent Inhibition (-) or Enhancement (+) of migration (murine marcophage cells; 10^-10 m): -68.2%; Percent Inhibition (-) or Enhancement (+) of migration (murine marcophage cells; 10^-11 m): -36.8%; inhibition at 0.0001 µM (murine marcophage cells; Mus musculus, Macrophage, 10^-10 molar concentration, read-out: inhibits migration): 68.2%; change in vivo at 6.25 mg/kg [1]: 72%

Q: Which change in vivo at 6.25 mg/kg [1] does the source give for `c1ccc(SC2CCN3CC(c4ccccc4)N=C23)cc1` (stereo not drawn) [Example 2, 2,5,6,7-Tetrahydro-2-phenyl-7-phenyl-thio-3H-pyrrolo[1,2-a]imidazole hydrochloride] here?
A: The change in vivo at 6.25 mg/kg was 29%.

Q: What does the source list for `COc1ccc(CSC2CCN3CC(c4ccccc4)N=C23)cc1` (stereo not drawn) [Example 3, 2,5,6,7-Tetrahydro-2-phenyl-7-p-methoxybenzylthio-3H-pyrrolo[1,2-a]imidazole hydrochloride]?
A: Percent Inhibition (-) or Enhancement (+) of migration (murine marcophage cells; 10^-5 m): -94.9%; Percent Inhibition (-) or Enhancement (+) of migration (murine marcophage cells; 10^-7 m): -64.5%; Percent Inhibition (-) or Enhancement (+) of migration (murine marcophage cells; 10^-8 m): -43.0%; Percent Inhibition (-) or Enhancement (+) of migration (murine marcophage cells; 10^-9 m): -29.2%; change in vivo at 6.25 mg/kg [1]: 108%

Q: With `CCCCSC1CCN2CC(c3ccccc3)N=C12` (stereo not drawn) [Example 7, 2,5,6,7-Tetrahydro-2-phenyl-7-n-butylthio-3H-pyrrolo[1,2-a]imidazole hydrochloride] as the compound, how does the change in vivo at 6.25 mg/kg [1] read?
A: The change in vivo at 6.25 mg/kg was -49%.

Q: With `COc1ccc(C2CN3CCC(Sc4ccccc4)C3=N2)cc1` (stereo not drawn) [Example 8, 2,5,6,7-Tetrahydro-2-p-methoxyphenyl-7-phenylthio-3H-pyrrolo[1,2-a]imidazole hydrochloride] as the compound, how does the “percent change from control (i.e., without 6MP)” value ([1]; without 6MP treatment, 6.25 mg/Kg (i.p.) of compound) read?
A: The value was -36%.

Q: Which results are given for `CSC1CCCN2CC(c3ccccc3)N=C12` (stereo not drawn) [Example 10, 2,3,5,6,7,8-Hexahydro-2-phenyl-8-methylthioimidazo[1,2-a]pyridine hydrochloride]?
A: Percent Inhibition (-) or Enhancement (+) of migration (murine marcophage cells; 10^-5 m): -94.1%; Percent Inhibition (-) or Enhancement (+) of migration (murine marcophage cells; 10^-7 m): -94.4%; Percent Inhibition (-) or Enhancement (+) of migration (murine marcophage cells; 10^-8 m): -88.4%; Percent Inhibition (-) or Enhancement (+) of migration (murine marcophage cells; 10^-9 m): -91.7%; Percent Inhibition (-) or Enhancement (+) of migration (murine marcophage cells; 10^-10 m): -97.4%; Percent Inhibition (-) or Enhancement (+) of migration (murine marcophage cells; 10^-11 m): -97.3%; change in vivo at 6.25 mg/kg [1]: 55%

Q: How did the change in vivo at 6.25 mg/kg [1] turn out when `c1ccc(SC2CCCN3CC(c4ccccc4)N=C23)cc1` (stereo not drawn) [Example 11, 2,3,5,6,7,8-Hexahydro-2-phenyl-8-phenylthioimidazo[1,2-a]pyridine sulfate (1:1) salt] was run?
A: Its change in vivo at 6.25 mg/kg is 125%.

Q: And the “restoration of the number of plaques” value ([1]; with 6-MP)?
A: Its value is “greater than 100%”.

Q: And the “Mean Liver Score” value (mouse hepatitis virus; 6.25 mg/Kg i.p., control 2.6)?
A: The value was 2.0.

Q: What about the “Percent Survival” value (mouse hepatitis virus; 6.25 mg/Kg i.p., control 5%) of the same compound?
A: The value was 10%.

Q: And the “Mean Liver Score” value (mouse hepatitis virus; 12.5 mg/Kg i.p., control 2.6 (Examples 11, 16, 23), 3.4 (25, 26))?
A: The value was 1.8.

Q: What about the “Percent Survival” value (mouse hepatitis virus; 12.5 mg/Kg i.p., control 5% (Examples 11, 16, 23), 6% (25, 26)) of the same compound?
A: Its value is 40%.

Q: What about the “Mean Liver Score” value (mouse hepatitis virus; 25 mg/Kg i.p., control 2.6 (Examples 11, 23), 3.4 (25, 26)) of the same compound?
A: The value was 1.8.

Q: And the “Percent Survival” value (mouse hepatitis virus; 25 mg/Kg i.p., control 5% (Examples 11, 23), 6% (25, 26))?
A: Its value is 40%.

Q: For `Cc1ccc(SC2CCCN3CC(c4ccccc4)N=C23)cc1` (stereo not drawn) [Example 12, 2,3,5,6,7,8-Hexahydro-2-phenyl-8-p-tolylthioimidazo[1,2-a]pyridine sulfate (1:1) salt], which change in vivo at 6.25 mg/kg [1] is on record?
A: The change in vivo at 6.25 mg/kg was 50%.

Q: How did the change in vivo at 6.25 mg/kg [1] turn out when `Clc1ccc(SC2CCCN3CC(c4ccccc4)N=C23)cc1` (stereo not drawn) [Example 13, 2,3,5,6,7,8-Hexahydro-2-phenyl-8-p-chlorophenylthioimidazo[1,2-a]pyridine sulfate (1:1) salt] was run?
A: The change in vivo at 6.25 mg/kg was 103%.
